Test results: patent US20250041286A1, “CANCER TREATMENT USING KETOTIFEN IN COMBINATION WITH A CHECKPOINT INHIBITOR” (Materia Therapeutics Inc., priority 2021, published 2025)
Entries after “also recorded” stand apart in the source; their conditions may differ.

Columns and labels:
[1] = Mouse body, thymus and spleen weight at conclusion of study; assay type: in vivo; details: highest dose (of 1, 5, 10, 25 mg/kg), i.p. once a day for 8 days
Protocol: Each treatment group of 4-7 mice received subtherapeutic doses of ketotifen (1, 5, 10 and 25 mg/kg) for a period of 8 days. Ketotifen fumarate salt was dissolved in sterilized normal saline (0.9% NaCl in ddH2O, w/v). Ketotifen 1 mg/kg, 5 mg/kg, 10 mg/kg, 25 mg/kg or equal volume of diluent (control group) was administered by intraperitoneal injection (i.p.) once a day for 8 days. Ketotifen treatment for MCA205 and K7M2wt tumor models started when the average tumor volume reached 60 mm^3 and 150 mm^3, respectively, and completed at 600 mm^3. At study endpoint, primary tumors were surgically excised and stored in 1×PBS at −80° C. until further processing. Planar dimensions (x, y) of tumor were monitored every 2-3 days using a digital caliper and tumor volume was estimated from the volume of an ellipsoid and assuming that the third dimension, z, is equal to sqrt(x y).
Following treatment, tumor growth (tumor volume and mass, see, FIGS. 2A and 2C for MCA205 tumors, and FIGS. 2B and 2D for K7M2wt tumors) was evaluated in the mice of each sarcoma group.

MCA205 tumors [2] = test: Hypoxia study, pimonidazole adduct immunofluorescence; assay type: in vivo, mouse
Protocol: Mice bearing orthotopic MCA205 or K7M2wt sarcoma tumors were injected (intraperitoneal) with 60 mg/kg of pimonidazole HCl at 2 hours prior to tumor removal. Tumors were removed, washed twice in 1×PBS for 10 minutes and incubated with 4% PFA overnight at 4° C. The fixative was aspirated, and samples were washed twice in 1×PBS for 10 min. Tissue samples were dehydrated in successive ethanol steps and xylene followed by paraffin embedding. Serial sections ([…]) of paraffin-embedded tissues were produced using the microtome (Accu-Cut SRM 200 Rotary Microtome, SAKURA), flattened out into water, and allowed to dry overnight at 37° C. Sections were then deparaffinized and rehydrated as routinely processed for histology. Slides were microwaved in TriSodium Citrate, blocked in serum solution, and incubated with mouse anti-pimonidazole RED 549 conjugate antibody (HP7-100Kit, 1:100) overnight at 4° C. The next day slides were washed, nuclei were stained with DAPI, and tissue sections were mounted. Immunofluorescence images of the slides were taken (FIG. 1A), and hypoxic area fraction across different treatment groups was normalized to DAPI staining.

MCA205 tumors [3] = test: Flow cytometry of tumor-infiltrating lymphocytes and myeloid cells; assay type: in vivo, mouse; details: CD11b / Gr-1 flow cytometry
Protocol: On day 16 of the doxorubicin-anti-PD-L1 combination study (e.g., the study outlined in FIG. 8A), MCA205 tumors were harvested in 1×HBSS (Biosera), minced to fine fragments, and incubated with 1 mg/mL Collagenase D and 0.5 mg/ml DNase I (Roche) in a 37° C. shaker for 30 minutes. Enzymatic digestion was ceased by the addition of RPMI media containing 10% FBS and 1% antibiotic/antimycotic solution. The tissue homogenates were then filtered through 40 μm cell strainers. Red blood cells were removed by ACK Lysing buffer (A1049201, Gibco) and single cell suspensions were collected and used to a final concentration 1×10^6 cells per sample. Cells were then incubated with fixable viability dye (eBioscience, 1:1000) for 10 minutes on ice for gating of viable cells. Non-specific antibody binding was blocked following incubation with the rat anti-mouse CD16/CD32 mAb (BD Bioscience) for 20 minutes on ice. […]
Foxp3-AF488 (BD Bioscience) staining was performed following fixation and permeabilization process using the Foxp3/Transcription Factor Staining Buffer Set (00-5523-00, eBioscience). […] Flow cytometry data were obtained using BD FACSLyric flow cytometer and analyzed using BD FACSuite™ Software. […]

murine MC/9 MCs = test: MC/9 - NIH3T3 transwell co-culture, mast cell degranulation by β-hexosaminidase release; assay type: cell-based
Protocol: Given that both MCs and fibroblasts are present in the TME, the consequences of MC activation on myofibroblasts was explored using a co-culture assay in which murine MC/9 MCs and NIH3T3 myofibroblasts were separated by a transwell chamber with micropores that only allowed chemical communication (FIG. 13A). In this system, degranulation efficiency was determined by measuring the concentration of β-hexosaminidase (β-hex) in the supernatant. MC degranulation was induced through exposure to compound 48/80 (C48/80), which binds to the MRGPRB2 receptor (the orthologue of the human G-protein-coupled receptor MRGPRX2). […] Co-cultures treated with a vehicle control and Triton X-100 were used as internal assay control to evaluate background and maximum β-hex release, respectively. Transforming growth factor (TGF)-β1 was used as a fibroblast activator due to its capacity to induce a myofibroblast phenotype of the NIH3T3 cells. MC/9 cells were cultivated with NIH3T3 cells for 24 hours and then treated with either ketotifen or TGFβ for additional 24 hours in low serum medium, followed by a 30 minute sensitization with C48/80.

## CN1CCC(=C2c3ccccc3CC(=O)c3sccc32)CC1 [ketotifen]
[1]
  splenomegaly: caused splenomegaly
MCA205 tumors [2]; 1 mg/kg, 5 mg/kg and 25 mg/kg ketotifen
  pimonidazole positive fraction (hypoxia): prominent
MCA205 tumors [2]; 10 mg/kg ketotifen, MCA205
  pimonidazole positive fraction (hypoxia): significantly reduced; also recorded: alleviated hypoxia
MCA205 tumors [3]
  recruitment of immunosuppressive cell populations (MDSCs): reducing the recruitment of immunosuppressive cell populations; also recorded: decreasing the polarization of immature myeloid cell population into MDSCs
Murine MC/9 MCs; 24 hours treatment, then 30 minute sensitization with C48/80
  MC degranulation (β-hex release): inhibits degranulation in a dose-dependent manner
Murine MC/9 MCs; ketotifen 100 μg/ml
  reduction in β-hex release compared to C48/80 treatment: more than 50%
